# According to PubChem BioAssay AID624269 (Broad Institute, 2012):
# Active and inactive are the calls of the source. The rule behind the calls is not given here.
# Tested on: not listed separately
# Experiment: Quorum LuxO agonist, light production in absence of autoinducers, Vibrio cholerae, confirmatory (AID 624269)
# Conditions: Vibrio cholerae BH1651 luxOD47E, luciferase light induction, 6 h; at 8 µM (top of the series)
row,SMILES,activation
1,CCCn1nnnc1NCc1ccccc1Cl,0% (inactive)
2,O=c1ncn(-c2cccc(Cl)c2)c2ccccc12,0% (inactive)

# Same assay, conditions: Vibrio cholerae BH1651 luxOD47E, luciferase light induction, 6 h; at 35 µM (top of the series)
row,SMILES,activation
1,Cc1c(Cl)cccc1-n1cnc(=O)c2ccccc21,50% (inactive)
2,COc1ccc(Cl)cc1NC(=O)COC(=O)c1ccc(C)o1,0% (inactive)
3,CCn1nnnc1NCc1ccc(N2CCCC2)cc1,66.7% (inactive)
4,CCn1c(CC(=O)Nc2cccc(Cl)c2Cl)nnc1SCCOc1ccc(OC)cc1,-50% (inactive)
5,CCCn1nnnc1NCc1ccc(N(CC)CC)cc1,0% (inactive)
6,CCn1nnc(NCc2ccc(C)cc2)n1,0% (inactive)
7,COc1ccccc1NC(=O)COC(=O)c1oc2ccccc2c1C,0% (inactive)
8,CCCn1nnnc1NCc1ccc(C(C)C)cc1,33.3% (inactive)
9,Cc1ccc(CC(=O)NC2CCCC2)cc1,0% (inactive)
10,CCC(C)NC(=O)Cc1ccc(-c2ccccc2)cc1 (stereo not given),-33.3% (inactive)
11,COc1ccccc1NC(=O)COC(=O)c1ccc(C)cc1,0% (inactive)
12,CCOc1ccc(Nc2ccc3nonc3c2[N+](=O)[O-])cc1,0% (inactive)
13,CCCn1nnnc1NCc1ccc(N2CCCC2)cc1,-50% (inactive)
14,COc1ccccc1NC(=O)COC(=O)c1cc2c(s1)CCC2,0% (inactive)

# Tested on: Vibrio cholerae BH1651 luxOD47E, luciferase light induction, 6 h
# Experiment: as above
# Conditions: not given
row,SMILES,AC40
1,O=C(Cc1ccc(-c2ccccc2)cc1)NC1CCCC1,0.239 µM
2,O=C(Nc1nnc(-c2ccc3c(c2)OCCO3)o1)C1CCCCC1,0.000865 µM
3,Cc1ccc(OCCNC(=O)c2cccc(C)c2)cc1,0.312 µM
4,Cc1ccc2cc3c(NC(=O)c4ccco4)nn(C)c3nc2c1,> 35 µM (inactive)
